Reference: patent US20140271727A1, “METHOD OF USING AN ANTIDEPRESSANT FOR INCREASING IMMUNITY OF A SUBJECT AND TREATING CANCER” (NATIONAL YANG-MING UNIVERSITY, priority 2013, published 2014)

Legend:
Assay type in all cases: in vivo, mouse
IL-12p70 = test: Serum sIL-12 in SCID mice; details: SCID mice after mirtazapine treatment
Source text: Also, Applicant divides other six-weeks-old immunodeficient male SCID mice (purchased from the National Laboratory Animal Center, Taiwan) into two groups, such as the group named “never-SCID” (hereafter called “never-SCID”) and the group named “always-SCID” (hereafter called “always-SCID”), as control groups for verifying the involvement of the immune system in the inhibition of the tumor growth by mirtazapine. Never-SCID means that the mice are monitored with tumor inoculation but without mirtazapine treatment, and always-SCID means the mice are monitored with mirtazapine treatment initiated 2 weeks before tumor inoculation. As to the quantification of interleukin-12 (hereafter called “IL-12”), the whole blood withdrawn from the pouch of each mouse was centrifuged at 600×g for 20 min, and serum was collected. The serum IL-12p70 (sIL-12) level was determined using an ELISA kit (R&D Systems, Taiwan). Identification for the lymph node cluster of differentiated CD4+ T helper and CD8+T-cytotoxic lymphocyte subsets was assayed. Briefly, the lymphocytes isolated from the lymph nodes of groins of mice were stained with phycoerythrin-conjugated antimouse CD4 (CD4-PE) monoclonal antibody and peridininchlorophyll-protein-complex-conjugated anti-mouse CD8 (CD8-PerCP) monoclonal antibody (BioLegend, USA). Lymphocyte subsets were identified by FACS analysis using a FACS Calibur flow cytometer. […]

BALB/c mice [1] = test: Tail suspension test (immobility time); details: continuous mirtazapine 10 mg/kg/d (drug and always); day 22 after tumor inoculation
Description: (§1) Second, all animal study protocols were approved by the Institutional Animal Care and Use Committee (IACAU) of National Yang Ming University. Mirtazapine (0.25 mg) was dissolved in 0.05 ml of 0.9% NaCl plus 0.5% absolute ethanol for each mouse (i.e. 10 mg/kg.) Male BALB/c mice (initial weights 25±2 g, and purchased from the National Laboratory Animal Center, Taipei, Taiwan) were housed in the cages, five mice per cage, under a 12:12 h reverse light/dark cycle with lights off at 6 pm Animals were handled and weighed daily for a week to reduce any non-specific stress responses. […] “Wild-type” means the mice are monitored without tumor inoculation and mirtazapine treatment, drug means the mice are monitored with continuous mirtazapine treatment but without tumor inoculation, never means the mice are monitored with tumor inoculation and daily 0.05 ml of 0.9% NaCl plus 0.5% absolute ethanol treatment but without mirtazapine treatment, always means the mice are monitored with mirtazapine treatment initiated 2 weeks before the tumor inoculation, and concurrent means the mice are monitored with tumor inoculation and mirtazapine treatment on the same day, and after means the mice are monitored with mirtazapine treatment initiated 2 weeks post the tumor inoculation. […]

BALB/c mice [2] = test: Spontaneous motor activity assay; details: continuous mirtazapine 10 mg/kg/d (drug and always); day 22 after tumor inoculation
Description: as §1

CD4+ and CD8+ T cells = test: Lymph node CD4+ and CD8+ T lymphocyte subsets by FACS; details: flow cytometry
Description: Preferably, the results as shown in FIG. 4C and FIG. 4D are performed by a flow cytometer, and a target cell population will be screened out by utilizing at least one flow cytometer to identify different surface markers of different cells. Flow cytometry allows for single cell analysis at speeds far surpassing any other single cell analysis technology in the art. This enables a statistically significant number of cells to be analyzed faster than using other alternative techniques. In a preferred embodiment, a flow cytometer is used with any suitable sample preparation robot or liquid handler that is known in the art. Furthermore, a single laser flow cytometer is used in an embodiment for the analyzing step. In another embodiment, a multi-laser flow cytometer is used for the analyzing step and the present invention is not limited thereto.
(§2) Second, all animal study protocols were approved by the Institutional Animal Care and Use Committee (IACAU) of National Yang Ming University. Mirtazapine (0.25 mg) was dissolved in 0.05 ml of 0.9% NaCl plus 0.5% absolute ethanol for each mouse (i.e. 10 mg/kg.) Male BALB/c mice (initial weights 25±2 g, and purchased from the National Laboratory Animal Center, Taipei, Taiwan) were housed in the cages, five mice per cage, under a 12:12 h reverse light/dark cycle with lights off at 6 pm Animals were handled and weighed daily for a week to reduce any non-specific stress responses. And then, please refer to FIG. 1A and FIG. 1B, FIG. 1A and FIG. 1B are diagrams showing the experimental designs according to an embodiment of the present invention. […] “Wild-type” means the mice are monitored without tumor inoculation and mirtazapine treatment, drug means the mice are monitored with continuous mirtazapine treatment but without tumor inoculation, never means the mice are monitored with tumor inoculation and daily 0.05 ml of 0.9% NaCl plus 0.5% absolute ethanol treatment but without mirtazapine treatment, always means the mice are monitored with mirtazapine treatment initiated 2 weeks before the tumor inoculation, and concurrent means the mice are monitored with tumor inoculation and mirtazapine treatment on the same day, and after means the mice are monitored with mirtazapine treatment initiated 2 weeks post the tumor inoculation. That is, the mice were assayed on day 22 for behaviors, and then sacrificed for the measurement of lymphocyte subsets and performed with ex vivo autoradiography.
As to the quantification of interleukin-12 (hereafter called “IL-12”), the whole blood withdrawn from the pouch of each mouse was centrifuged at 600×g for 20 min, and serum was collected. The serum IL-12p70 (sIL-12) level was determined using an ELISA kit (R&D Systems, Taiwan). Identification for the lymph node cluster of differentiated CD4+ T helper and CD8+T-cytotoxic lymphocyte subsets was assayed. Briefly, the lymphocytes isolated from the lymph nodes of groins of mice were stained with phycoerythrin-conjugated antimouse CD4 (CD4-PE) monoclonal antibody and peridininchlorophyll-protein-complex-conjugated anti-mouse CD8 (CD8-PerCP) monoclonal antibody (BioLegend, USA). Lymphocyte subsets were identified by FACS analysis using a FACS Calibur flow cytometer. Immunohistochemistry (IHC) of CD4 and CD8 was also performed on day 42 post the tumor inoculation. Tumors were then removed, paraffin embedded, and […] sectioning was performed. The sections were immunohistostained with antibodies against CD4 (BioLegend, USA) and CD8 (BioLegend, USA), respectively. The procedures of immunohistostaining were followed the protocols provided with the IHC kit (Millipore, USA). All images were digitally captured on a Scanscope CS system (Aperio, USA).

CT26/luc tumor = test: Survival of CT26/luc tumor-bearing BALB/c mice; details: 10 mg/kg/d by gavage, never 43.1±2.6 days
Description: as §2
Accordingly, the CT26/luc cells (2×10^6 cells/200 μL) suspended in the serum-free RPMI medium were transplanted subcutaneously into the dorsal region of the right thighs of the BALB/c mice. 10 mg/kg/d mirtazapine dissolved in 0.9% sodium chloride and 0.5% ethanol was administered to mice by gavage daily till mice expired or terminated on day 67 post tumor inoculation. Survival rate and interval were assayed for never, always, concurrent, and after (n=10 per group). […]

[3] = group Always, CT26/luc tumor-bearing
[4] = group Concurrent, CT26/luc tumor-bearing
[5] = group Drug: continuous mirtazapine 10 mg/kg/d, no tumor
[6] = group after, CT26/luc tumor-bearing

CN1CCN2c3ncccc3Cc3ccccc3C2C1 (centres unmarked) [mirtazapine]
increase of sIL-12 level in SCID mice (IL-12p70): not found | immobility time (BALB/c mice [1]): significantly decreased | spontaneous motor activity (BALB/c mice [2]): no effect | CD4+ T cells (10^4 events) (CD4+ and CD8+ T cells; [3]): 29.75 ± 1.96% | CD8+ T cells (10^4 events) (CD4+ and CD8+ T cells; [3]): 32.77 ± 7.43% | CD4+ T cells (10^4 events) (CD4+ and CD8+ T cells; [4]): 25.77 ± 0.73% | CD8+ T cells (10^4 events) (CD4+ and CD8+ T cells; [4]): 22.41 ± 5.03% | CD4+ T cells (10^4 events) (CD4+ and CD8+ T cells; [5]): 30.97 ± 1.40% | CD8+ T cells (10^4 events) (CD4+ and CD8+ T cells; [5]): 30.95 ± 6.57% | CD4+ T cells (10^4 events) (CD4+ and CD8+ T cells; [6]): 22.58 ± 1.15% | CD8+ T cells (10^4 events) (CD4+ and CD8+ T cells; [6]): 15.86 ± 4.78% | survival time (CT26/luc tumor; group after): 57.01 ± 3.2 days | survival time (CT26/luc tumor; group always, terminated on day 67): 66.91 ± 0.1 days | survival time (CT26/luc tumor; group concurrent): 63.61 ± 1.5 days
